Measured values published in US9840510B1, “Pyrazolo[1,5-a]pyrimidinyl carboxamide compounds and their use in the treatment of medical disorders” (Lysosomal Therapeutics Inc., priority 2016, dated 2017).
Converted amounts (≈) assume the structure as drawn.

experiment: Compound solubility in water; type: physicochemical

Compound | solubility [µg/mL] | Compound Solubility in Water [µg/mL]
Cc1cc(-c2ccc(F)c(C(N)=O)c2)nc2c(C(=O)NC(C3CC3)C(F)(F)F)cnn12 (centres unmarked) [III-162] | 1 (≈ 2.3 µM) | –
CNC(=O)c1cccc(-c2cc(C)n3ncc(C(=O)NC(C4CC4)C(F)(F)F)c3n2)c1 (centres unmarked) [III-414] | 1.6 (≈ 3.71 µM) | –
Cc1cc(-c2ccccn2)n2ncc(C(=O)NC(C)(C)C3CC3)c2n1 [III-17] | 2.2 (≈ 6.56 µM) | –
Cc1ncc(-c2cc(C)n3ncc(C(=O)NC(C4CC4)C(F)(F)F)c3n2)o1 (centres unmarked) [III-246] | 3.1 (≈ 8.17 µM) | –
Cc1cc(C)n2ncc(C(=O)N[C@H]3CC[C@H](OC(C)(C)C)CC3)c2n1 [III-190] | 8.9 (≈ 25.8 µM) | –
Cc1cc(-c2cc(F)ccc2C#N)nc2c(C(=O)N[C@@H](C)C(F)(F)F)cnn12 [III-350] | 0.3 (≈ 0.767 µM) | –
Cc1nc(-c2cc(C)n3ncc(C(=O)NC(C4CC4)C(F)(F)F)c3n2)co1 (centres unmarked) [III-249] | 0.6 (≈ 1.58 µM) | –
Cc1cc(-c2cc(F)ccn2)nc2c(C(=O)NC(C3CC3)C(F)(F)F)cnn12 (centres unmarked) [III-205] | 0.1 (≈ 0.254 µM) | –
Cc1cc(N2CCCN(C(C)C)C2=O)nc2c(C(=O)NC(C)(C)C3CC3)cnn12 [III-261] | 23 (≈ 57.7 µM) | –
Cc1cncc(-c2cc(C)n3ncc(C(=O)N[C@@H](C4CC4)C(F)(F)F)c3n2)c1 [III-277] | 5.3 (≈ 13.6 µM) | –
Cc1cc(-c2ccc(N3CCOCC3)c(F)c2)nc2c(C(=O)NC(C)C(F)(F)F)cnn12 (centres unmarked) [III-299] | 0.5 (≈ 1.11 µM) | –
CCc1cc(N2CCN(C(C)C)C2=O)nc2c(C(=O)NC(C)(C)C)cnn12 [III-229] | 13.5 (≈ 36.2 µM) | –
Cc1cc(-c2ccc(F)cc2C#N)nc2c(C(=O)NC(C3CC3)C(F)(F)F)cnn12 (centres unmarked) [III-151] | 0.1 (≈ 0.24 µM) | –
COc1ccc(F)cc1-c1cc(C)n2ncc(C(=O)N[C@H](C)C(F)(F)F)c2n1 [III-195] | 0.01 (≈ 0.0252 µM) | –
Cc1cc(-c2ccncc2)nc2c(C(=O)NC(C)C3CC3)cnn12 (centres unmarked) [III-28] | 27.6 (≈ 85.9 µM) | –
Cc1cc(-c2cncc(Cl)c2)nc2c(C(=O)N[C@H](C)C(F)(F)F)cnn12 [III-201] | 3.1 (≈ 8.08 µM) | –
Cc1cc(-c2ccco2)nc2c(C(=O)NC(C3CC3)C(F)(F)F)cnn12 (centres unmarked) [III-186] | 0.6 (≈ 1.65 µM) | –
CCc1cc(N2CCN(C(C)C)C2=O)nc2c(C(=O)NC(C)C(F)(F)F)cnn12 (centres unmarked) [III-226] | 5.9 (≈ 14.3 µM) | –
Cc1cc(C)n2ncc(C(=O)N[C@@H](C)C3CCCCC3)c2n1 [III-4] | 16.1 (≈ 53.6 µM) | –
Cc1cc(NC2CC2)nc2c(C(=O)NC(C)C(F)(F)F)cnn12 (centres unmarked) [III-165] | 4 (≈ 12.2 µM) | –
Cc1cc(-c2cccc(C(N)=O)c2)nc2c(C(=O)NC(C3CC3)C(F)(F)F)cnn12 (centres unmarked) [III-73] | 0.4 (≈ 0.958 µM) | –
Cc1cc(N2CC(C)(C)NC2=O)nc2c(C(=O)NC(C3CC3)C(F)(F)F)cnn12 (centres unmarked) [III-319] | 1.3 (≈ 3.17 µM) | –

Compound | solubility [µg/mL] | Compound Solubility in Water [µg/mL]
Cc1cc(C)n2ncc(C(=O)NC(c3ccc(F)cc3)C(F)(F)F)c2n1 (centres unmarked) [III-184] | 1.1 (≈ 3 µM) | –
Cc1cc(-c2cccc(F)c2)nc2c(C(=O)N[C@@H](C)C3CC3)cnn12 [III-56] | 1.1 (≈ 3.25 µM) | –
COc1cc(F)cc(-c2cc(C)n3ncc(C(=O)NC(C)C(F)(F)F)c3n2)c1 (centres unmarked) [III-410] | 0.06 (≈ 0.151 µM) | –
COc1cc(F)cc(-c2cc(C)n3ncc(C(=O)N[C@@H](C)C4CC4)c3n2)c1 [III-137] | 0.8 (≈ 2.17 µM) | –
Cc1cc(-c2ccccn2)nc2c(C(=O)NC(C3CC3)C(F)(F)F)cnn12 (centres unmarked) [III-36] | 0.4 (≈ 1.07 µM) | –
COCOc1cccc(-c2cc(C)n3ncc(C(=O)N[C@@H](C4CC4)C(F)(F)F)c3n2)n1 [III-384] | 0.1 (≈ 0.23 µM) | –
Cc1cc(-c2nc3ccccc3n2C)nc2c(C(=O)NC(C3CC3)C(F)(F)F)cnn12 (centres unmarked) [III-312] | 0.3 (≈ 0.7 µM) | –
Cc1cc(N2CCCN(C(C)C)C2=O)nc2c(C(=O)NC(C)(C)C(F)(F)F)cnn12 [III-262] | 19 (≈ 44.6 µM) | –
Cc1cc(-c2cccnc2)n2ncc(C(=O)N[C@@H](C)C3CC3)c2n1 [III-27] | 18 (≈ 56 µM) | –
Cc1cc(-c2ccc3ocnc3c2)nc2c(C(=O)N[C@@H](C3CC3)C(F)(F)F)cnn12 [III-110] | 0.4 (≈ 0.963 µM) | –
Cc1cc(-c2cccc3c2OCO3)nc2c(C(=O)N[C@@H](C)C3CC3)cnn12 [III-182] | 0.2 (≈ 0.549 µM) | –
Cc1cc(-c2cc(Cl)ccn2)nc2c(C(=O)NC(C3CC3)C(F)(F)F)cnn12 (centres unmarked) [III-207] | 0.6 (≈ 1.46 µM) | –
Cc1cc(-c2cncc(Cl)c2)nc2c(C(=O)N[C@@H](C)C(F)(F)F)cnn12 [III-202] | 2.5 (≈ 6.51 µM) | –
Cc1cc(-c2ccns2)nc2c(C(=O)N[C@H](C3CC3)C(F)(F)F)cnn12 [III-100] | 0.9 (≈ 2.36 µM) | –
Cc1cc(-c2nccs2)nc2c(C(=O)NC(C3CC3)C(F)(F)F)cnn12 (centres unmarked) [III-209] | 1.2 (≈ 3.15 µM) | –
Cc1cc(-n2ccc(Cl)n2)nc2c(C(=O)NC(C)C(F)(F)F)cnn12 (centres unmarked) [III-170] | 0.5 (≈ 1.34 µM) | –
Cc1cc(N2CCC(F)(F)CC2)nc2c(C(=O)NC(C)C3CC3)cnn12 (centres unmarked) [III-60] | 4.4 (≈ 12.1 µM) | –
Cc1cc(-c2cccnc2)nc2c(C(=O)N[C@H]3CC[C@H](OCC(C)C)CC3)cnn12 [III-39] | 4.4 (≈ 10.8 µM) | –
Cc1cc(N2CCCN(C(C)C)C2=O)nc2c(C(=O)NC(C)(C)C)cnn12 [III-258] | 26.4 (≈ 70.9 µM) | –
COc1ccc(-c2cc(C)n3ncc(C(=O)N[C@H](C)C(F)(F)F)c3n2)cn1 [III-272] | 3.1 (≈ 8.17 µM) | –
Cc1cc(-c2ccc(F)o2)nc2c(C(=O)NC(C3CC3)C(F)(F)F)cnn12 (centres unmarked) [III-264] | 0.4 (≈ 1.05 µM) | –
Cc1cc(-c2cccc3ncn(C)c23)nc2c(C(=O)NC(C3CC3)C(F)(F)F)cnn12 (centres unmarked) [III-309] | 31.4 (≈ 73.3 µM) | –

Compound | solubility [µg/mL] | Compound Solubility in Water [µg/mL]
Cc1cc(-c2cccnc2)nc2c(C(=O)N[C@H](C3CC3)C(F)(F)F)cnn12 [III-88] | 14.8 (≈ 39.4 µM) | –
Cc1cc(-c2ccc(Cl)nc2)nc2c(C(=O)N[C@H](C3CC3)C(F)(F)F)cnn12 [III-117] | 0.8 (≈ 1.95 µM) | –
Cc1cc(-c2ccc(F)cc2)n2nc(Cl)c(C(=O)N[C@@H](C)C3CC3)c2n1 [III-33] | 0.5 (≈ 1.34 µM) | –
Cc1cc(N2CCN(CC(F)(F)F)C2=O)nc2c(C(=O)NC(C3CC3)C(F)(F)F)cnn12 (centres unmarked) [III-233] | 0.7 (≈ 1.51 µM) | –
Cc1cc(-c2ccc(F)cc2)nc2c(C(=O)N[C@H](C)C3CC3)cnn12 [III-86] | 2.8 (≈ 8.27 µM) | –
Cc1cc(-c2ccccc2C#N)nc2c(C(=O)N[C@@H](C)C(F)(F)F)cnn12 [III-213] | 0.6 (≈ 1.61 µM) | –
Cc1coc(-c2cc(C)n3ncc(C(=O)N[C@H](C4CC4)C(F)(F)F)c3n2)n1 [III-255] | 1.6 (≈ 4.22 µM) | –
COc1cc(-c2cc(C)n3ncc(C(=O)N[C@@H](C)C4CC4)c3n2)ccc1F [III-145] | 0.2 (≈ 0.543 µM) | –
Cc1cc(-c2cccc(C(=O)N(C)C)c2)nc2c(C(=O)NC(C3CC3)C(F)(F)F)cnn12 (centres unmarked) [III-413] | 6 (≈ 13.5 µM) | –
Cc1cc(N2CCC(C)(C)C2=O)nc2c(C(=O)NC(C3CC3)C(F)(F)F)cnn12 (centres unmarked) [III-328] | 3.3 (≈ 8.06 µM) | –
Cc1cc(-c2ccccn2)nc2c(C(=O)NC(C)C(F)(F)F)cnn12 (centres unmarked) [III-50] | 1.6 (≈ 4.58 µM) | –
Cc1cc(C)n2ncc(C(=O)N[C@@H](C)C3CC3)c2n1 [III-1] | 27 (≈ 105 µM) | –
Cc1cc(N2CCCC(F)(F)C2)nc2c(C(=O)NC(C3CC3)C(F)(F)F)cnn12 (centres unmarked) [III-66] | 0.3 (≈ 0.719 µM) | –
Cc1cc(-c2ccc(F)cc2)nc2c(C(=O)NC(C)C(F)(F)F)cnn12 (centres unmarked) [III-164] | 1.1 (≈ 3 µM) | –
Cc1cc(-c2cncc(C(F)(F)F)c2)nc2c(C(=O)N[C@H](C)C(F)(F)F)cnn12 [III-286] | 2.1 (≈ 5.03 µM) | –
COc1ccc(F)c(-c2cc(C)n3ncc(C(=O)NC(C)C(F)(F)F)c3n2)c1 (centres unmarked) [III-409] | 0.9 (≈ 2.27 µM) | –
Cc1cc(N2CC(C(C)C)OC2=O)nc2c(C(=O)NC(c3ccccc3)C(F)(F)F)cnn12 (centres unmarked) [III-313] | 0.1 (≈ 0.217 µM) | –
COCc1cc(-c2ccc(F)cc2)nc2c(C(=O)NC(C)(C)C3CC3)cnn12 [III-47] | 0.3 (≈ 0.784 µM) | –
COc1cc(-c2cc(C)n3ncc(C(=O)NC(C)C(F)(F)F)c3n2)ccc1F (centres unmarked) [III-148] | 1.2 (≈ 3.03 µM) | –
Cc1cc(C)n2ncc(C(=O)NC(C)(C)C3CC4(CCC4)C3)c2n1 [III-13] | 0.3 (≈ 0.919 µM) | –
Cc1cc(-c2cccnc2)nc2c(C(=O)NC(C)(C)C3CC3)cnn12 [III-18] | 17.4 (≈ 51.9 µM) | –
Cc1cc(-c2cc(C)n3ncc(C(=O)N[C@H](C4CC4)C(F)(F)F)c3n2)sn1 [III-215] | 0.3 (≈ 0.759 µM) | –

Compound | solubility [µg/mL] | Compound Solubility in Water [µg/mL]
Cc1cc(-c2ccc(F)c(C#N)c2)nc2c(C(=O)NC(C3CC3)C(F)(F)F)cnn12 (centres unmarked) [III-158] | 0.3 (≈ 0.719 µM) | –
CCC(NC(=O)c1cnn2c(C)cc(-c3cccnc3)nc12)C(F)(F)F (centres unmarked) [III-42] | 15.1 (≈ 41.6 µM) | –
Cc1cc(-c2ccns2)nc2c(C(=O)NC(C3CC3)C(F)(F)F)cnn12 (centres unmarked) [III-411] | 0.7 (≈ 1.84 µM) | –
COCc1cc(-c2cccc(OC)c2)nc2c(C(=O)NC(C)(C)C3CC3)cnn12 [III-79] | 0.5 (≈ 1.27 µM) | –
Cc1cc(N2CCCC(F)(F)C2)nc2c(C(=O)NC(C)C(F)(F)F)cnn12 (centres unmarked) [III-179] | 1.1 (≈ 2.81 µM) | –
Cc1cc(-c2cccnc2)nc2c(C(=O)N[C@@H](C3CC3)C(F)(F)F)cnn12 [III-89] | 10.4 (≈ 27.7 µM) | –
Cc1ncc(-c2cc(C)n3ncc(C(=O)N[C@H](C4CC4)C(F)(F)F)c3n2)o1 [III-247] | 0.6 (≈ 1.58 µM) | –
Cc1cc(NC2CC2)nc2c(C(=O)NC(C3CC3)C(F)(F)F)cnn12 (centres unmarked) [III-44] | 3 (≈ 8.49 µM) | –
COc1cncc(-c2cc(C)n3ncc(C(=O)NC(C)C(F)(F)F)c3n2)c1 (centres unmarked) [III-270] | 4.9 (≈ 12.9 µM) | –
Cc1cc(-c2cccc(Cl)c2)nc2c(C(=O)NC(C)C(F)(F)F)cnn12 (centres unmarked) [III-64] | 6.2 (≈ 16.2 µM) | –
Cc1cc(-c2cccc(F)n2)nc2c(C(=O)N[C@@H](C)C3CC3)cnn12 [III-134] | 0.8 (≈ 2.36 µM) | –
Cc1cc(C)n2ncc(C(=O)NC(CC(C)C)C3CC3)c2n1 (centres unmarked) [III-5] | 25.7 (≈ 85.6 µM) | –
Cc1cc(-c2cncc(F)c2)nc2c(C(=O)NC(C3CC3)C(F)(F)F)cnn12 (centres unmarked) [III-125] | 3.4 (≈ 8.64 µM) | –
Cc1cc(-c2cccc(-c3ncccn3)c2)nc2c(C(=O)NC(C3CC3)C(F)(F)F)cnn12 (centres unmarked) [III-417] | 0.04 (≈ 0.0884 µM) | –
Cc1cc(-c2cccnc2)nc2c(C(=O)N[C@H](C)c3ccc(Cl)cc3)cnn12 [III-37] | 2.1 (≈ 5.36 µM) | –
Cc1cc(-c2ccc3ocnc3c2)nc2c(C(=O)NC(C3CC3)C(F)(F)F)cnn12 (centres unmarked) [III-108] | – | 0.3
Cc1oc(C#N)cc1-c1cc(C)n2ncc(C(=O)NC(C3CC3)C(F)(F)F)c2n1 (centres unmarked) [III-242] | 3.2 (≈ 7.93 µM) | –
COc1cncc(-c2cc(C)n3ncc(C(=O)NC(C4CC4)C(F)(F)F)c3n2)c1 (centres unmarked) [III-265] | 1.3 (≈ 3.21 µM) | –
Cc1cc(-c2cccnc2C#N)nc2c(C(=O)N[C@@H](C3CC3)C(F)(F)F)cnn12 [III-366] | 1.1 (≈ 2.75 µM) | –
Cc1cc(-c2cccc3nc[nH]c23)nc2c(C(=O)NC(C3CC3)C(F)(F)F)cnn12 (centres unmarked) [III-308] | 4.6 (≈ 11.1 µM) | –
